Experimental data taken from patent US20160257749A1, “ANTI-TIM3 ANTIBODIES AND METHODS OF USE” (Hoffmann-La Roche, Inc., priority 2014, published 2016).

Legend:
Pfeiffer cells [1] = test: Cytotoxic activity of Fab-PE24 construct vs total IgG-Amatoxin conjugate, CellTiter-Glo; format: cell-based, human
Description: (§1) Treatment ranges from 50 μg/ml to 8 μg/ml in triplicate. Cycloheximide was used as positive control.

Pfeiffer cells [2] = test: Cytotoxic activity, human IgG1 format with anti-human Fc Fab-PE24, CellTiter-Glo; format: cell-based; conditions: full length human IgG1 format + human Fcγ specific Fab-PE 24 (10 μg/ml), 5 days at 37° C.
Description: (§2) Rel. Inhibition [%]=(1−(Esample−Enegative control)/(Epositive control−Enegative control))*100

RPMI-8226 cells [3] = test: as above; format: cell-based; conditions: full length human IgG1 format + human Fcγ specific Fab-PE 24 (10 μg/ml), 5 days at 37° C.
Description: as §2

recTIM-3 CHO cells = test: Cytotoxic activity, sandwich format with anti-mouse Fc Fab-PE24, CellTiter-Glo; format: cell-based; conditions: Cricetulus griseus, 72 h, full length mouse Fcγ versions + mouse Fcγ specific Fab-PE 24 (10 μg/ml), 3 days at 37° C.
Description: as §2

Karpas-299 = test: Cytotoxic activity of Fab-PE24 constructs, CellTiter-Glo; format: cell-based, human; conditions: 4 days at 37° C.
Description: as §1

CMK = test: as above; format: cell-based, human; conditions: 4 days at 37° C.
Description: as §1

TF-1 = test: as above; format: cell-based, human; conditions: 4 days at 37° C.
Description: as §1

RPMI-8226 = test: as above; format: cell-based, human; conditions: 4 days at 37° C.
Description: as §1

MOLM-13 = test: as above; format: cell-based, human; conditions: 4 days at 37° C.
Description: as §1

primary CD34+ AML cells = test: Cytotoxic activity of Fab-PE24 constructs on primary AML cells from relapsed/refractory patients; format: cell-based, human; conditions: 3 days at 37° C.
Description: CD34+ cells from peripheral blood of relapsed/refractory patients were obtained from AllCells, LLC, Alameda, Calif.
Cycloheximide was used as positive control.

Pfeiffer cells [4] = test: Cytotoxic activity of sortase coupled Fab-PE24 constructs, CellTiter-Glo; format: cell-based, human
Description: as §1

RPMI-8226 cells [5] = test: as above; format: cell-based, human
Description: as §1

RNA-polymerase II = RNA-polymerase II (Homo sapiens, UniProt P24928+P30876); conditions: read-out: KD of the complex between amanitin and RNA-polymerase II; cited from earlier work

C[C@@H]1C[C@@H]([C@H](O)CC2CC(=O)NC(=O)C2)C(=O)[C@@H](C)C1 [Cycloheximide, reference compound]
Pfeiffer cells Max. killing (Pfeiffer cells [1]): 100 [%] | Pfeiffer cells Max. killing (Pfeiffer cells [2]): 100 [%] | RPMI-8226 cells Max. killing (RPMI-8226 cells [3]): 100 [%] | IC50 (recTIM-3 CHO cells): 135 nM | Karpas-299 Max. killing (Karpas-299): 100% | CMK Max. killing (CMK): 100% | TF-1 Max. killing (TF-1): 100% | RPMI-8226 Max. killing (RPMI-8226): 100% | MOLM-13 Max. killing (MOLM-13): 100% | D1; AML CD34+ PB0136 cells Max. killing (primary CD34+ AML cells): 100 [%] | D2; AML CD34+ PB0142 cells Max. killing (primary CD34+ AML cells): 100 [%] | D3; AML CD34+ PB0135 cells Max. killing (primary CD34+ AML cells): 100 [%] | D4; AML CD34+ PB0193 cells Max. killing (primary CD34+ AML cells): 100 [%] | Pfeiffer cells Max. killing (Pfeiffer cells [4]): 100 [%] | RPMI-8226 cells Max. killing (RPMI-8226 cells [5]): 100 [%]

amanitin
Kd (RNA-polymerase II): 3 nM
